Entries after “also recorded” stand apart in the source; their conditions may differ.
Key:
[1] = system: subjects receiving methadone maintenance therapy; experiment: Safety measures, double-blind phase (Example 6); format: in vivo, human; settings: with increasing NTX dose; most mild or moderate
[2] = system: subjects on methadone maintenance therapy; experiment: Open-label naltrexone titration safety assessment (Example 6); format: in vivo, human; settings: 2 subjects, 30 mg hydrocodone at 0 hr, naltrexone at hourly intervals, oral
Protocol: Example 6 consisted of open-label and double-blind treatment phases conducted in male and female subjects receiving daily oral methadone maintenance doses from 60 to 90 mg. The methadone maintenance dose was given to the subject the day before each scheduled period. Administration of study medication occurred no sooner than 16 hours and no later than 22 hours after the methadone maintenance dose was given. 14 subjects were enrolled in the study (2 subjects, open-label phase (ascending dose naltrexone safety assessment) and 12 subjects, double-blind phase).
The open-label phase was a safety assessment of the 2 naltrexone doses (0.75 and 2.0 mg) planned in the protocol in subjects on methadone maintenance therapy. This phase of the study consisted of a screening visit conducted up to 14 days before administration of study drug, and a naltrexone titration visit. During the naltrexone titration visit, 2 subjects were to receive 30 mg of hydrocodone and 0.125 mg of naltrexone at 0 hr, with additional doses of naltrexone, up to a cumulative dose of 2.0 mg, administered at hourly intervals over the next 4 hours. In the open-label phase, neither subject received more than a 1.0-mg cumulative dose of naltrexone before rescue with methadone was required. […]

[3] = system: healthy volunteers with hyperalgesia; experiment: Subjective Symptom Rating Scale and Drug Rating Questionnaire (Example 7); format: in vivo, human
Protocol: (§1) Example 7 consisted of a single center trial conducted as a placebo-controlled, double-blind, randomized, 4-treatment, 4-period crossover study, which included a single-blind phase. Each treatment sequence consisted of 4 treatment periods, each of 4 hours duration, separated by at least a 5-day washout interval. […] The total duration of this study, including screening, was approximately 52 days.
(§2) After at least 5 days, those subjects who successfully completed the single-blind phase were randomized into the double-blind phase of the study. Healthy male and female volunteers were enrolled in this study.
(§3) The same test measurements conducted at baseline were then conducted at 0.5, 1, 2, 3, and 4 hours postdosing. Thermal Discomfort and Pain Latency testing were conducted at each time point on the control site (area on the other forearm, which was not subjected to the thermal stimulus). Testing on the control site was done prior to the test site for each time point. Each subject rested and recovered for no less than 5 days before returning for the next period. In the follow-up phase, subjects returned to the clinic within 7 days after completion of the study for a final check of the test site and a review of the subject's laboratory data prior to official discharge from the study.
The Symptom Rating Scale Questionnaire consisted of 25 items. […]

healthy volunteers = experiment: Safety and adverse events (Example 7); format: in vivo, human
Protocol: as §1
An AE (adverse event) was defined as any unfavorable and unintended sign (including abnormal laboratory findings), symptom or disease temporally associated with the use of a medicinal product, whether or not considered related to the medicinal product. An AE was classified as a TEAE (treatment emergent adverse event) only if the AE occurred after the first dose of the study drug was administered to a subject who was enrolled in the study. The period of observation for TEAEs was from the time that the first dose of study medication was administered until release from the study after completion of period 4 or at early discontinuation. All AEs reported by the subject or observed by the investigator/study staff were fully documented throughout the study. When AEs were encountered that required medical intervention, appropriate supportive and/or definitive therapy was provided by appropriately qualified and licensed medical personnel. […]

[4] = system: normal, healthy, adult male and female volunteers; experiment: Safety assessment (Example 5)
Protocol: (§4) In Example 5, a single center, placebo controlled, double-blind, randomized 9-treatment, 3 period crossover trial with an open-label screening phase was conducted.

[5] = system: minute ventilation in normal, healthy, adult male and female volunteers; experiment: CO2 rebreathing test, double-blind crossover trial (Example 5); format: in vivo, human; settings: oral NTX 0.125 to 8.0 mg with 15, 20 or 25 mg oral HYIR
Protocol: as §4

[6] = system: healthy volunteers with hyperalgesia; experiment: Pupillometry (Example 7); format: in vivo, human
Protocol: Each treatment sequence consisted of 4 treatment periods, each of 4 hours duration, separated by at least a 5-day washout interval. […] The total duration of this study, including screening, was approximately 52 days.
as §2, §3
Pupillometry was performed to measure the effect of the study treatment on pupil diameter. The pupil was photographed using a Polaroid One-Step Closeup Camera (Polaroid Corporation, Cambridge, Mass.) with modified 2× magnification oculars (John Hopkins University, Baltimore, Md.) and Polaroid 600 color film (Polaroid Corporation, Cambridge, Mass.). […] The camera was positioned on the subject's eye socket, aligning the iris with the middle of the opening of the lens adapter. The pupil diameter was measured from the photograph, in millimeters, using Model CD-6C Mitutoyo digital calipers (Judge Tool Sales, Southport, Conn.). The same eye was measured at all times for each subject.

[7] = system: healthy volunteers with hyperalgesia; experiment: Thermal Discomfort and Pain Latency testing (Example 7); format: in vivo, human
Protocol: as §1, §2
A test site and a control site were selected on each forearm and marked with a washable marker. Next, the topical anesthetic was applied to the test site. After approximately 1.5 hours (allowing for the anesthetic to take effect), the cream was removed and a thermal stimulus was applied to the test site for 3 minutes using a copper mass heated to 52° C. […]
Thermal Discomfort testing was designed to measure a subject's perception of discomfort following a 5-second contact with a warmed 1″ diameter copper mass (Uniformed Services University of the Health Sciences, Bethesda, Md.). […] The distance from the left anchor to the vertical mark was measured and was used as the quantitative measure of Thermal Discomfort. […]

[8] = system: subjects receiving methadone maintenance therapy; experiment: Double-blind crossover, subjective and physiologic opioid agonist/antagonist measures (Example 6)
[9] = 0.25-mg NTX dose with 30 mg HYIR
[10] = 0.5-mg NTX dose with 30 mg HYIR

With `O=C1CC[C@@]2(O)[C@H]3Cc4ccc(O)c5c4[C@@]2(CCN3CC2CC2)[C@H]1O5` [NTX, Naltrexone HCI] the “treatment-emergent adverse events commonly associated with opioid withdrawal per subject” value [1] was “increase in the number of treatment-emergent adverse events”, the “cumulative dose of naltrexone received before rescue with methadone was required” value [2] was at most 1.0 mg and the “subjective opioid agonist effects of HYIR (Subjective Symptom Rating Scale and Subjective Drug Rating Questionnaire)” value ([3]; 15 mg HYIR with placebo, 0.25, 0.5 or 1.0 mg NTX) was “no statistically significant differences among the treatments or consistent NTX dose-related trends”. For the same molecule, the “NTX dose-related effect on the subjective opioid agonist activity of the 15-mg dose of HYIR” value ([3]; NTX 0.25, 0.5, 1.0 mg) was “no consistent NTX dose-related effect”, the “number of reported TEAEs commonly associated with opioid use” value (healthy volunteers; 15 mg HYIR with increasing NTX dose) was “decreased with increased NTX dose” and the safety concerns (healthy volunteers; 15 mg of oral HYIR combined with 0.25, 0.5, or 1.0-mg NTX) was “no safety concerns”. For the same molecule, the safety concerns ([4]; NTX 0.125 to 8.0 mg combined with 15, 20 or 25 mg HYIR) was “no new safety concerns”, the “effect on HYIR-induced respiratory depression (% MPE20, % MPE30, double-blind MPE20 and MPE30)” value [5] was “statistically significant trend toward less respiratory depression; also recorded: blocked respiratory depression” and the “statistically significant increase in pupil diameter PDmax compared with HYIR+placebo NTX” value ([6]; HYIR+0.5 mg NTX and HYIR+1.0-mg NTX) was “not”. The “NTX dose-related effect on the physiologic opioid agonist activity of the 15-mg dose of HYIR” value ([6]; NTX 0.25, 0.5, 1.0 mg) was “no consistent NTX dose-related effect”, the HYIR-induced pupil constriction ([6]; all NTX doses (0.25, 0.5, 1.0 mg) with 15 mg HYIR) was “reduced HYIR-induced pupil constriction” and the “difference vs HYIR+placebo NTX in mean Thermal Discomfort VAS scores, Pain Latency, derived pharmacodynamic metrics of hyperalgesia” value ([7]; 15 mg HYIR + 0.25-, 0.5-, or 1.0-mg NTX, oral) was “no statistically significant differences”. For the same molecule, the “reduction of the analgesia produced by 15 mg oral HYIR (Thermal Discomfort VAS scores and Pain Latency testing)” value ([7]; NTX 0.25, 0.5, or 1.0-mg) was “None of the doses of NTX used in this study (0.25, 0.5, or 1.0-mg) produced a statistically significant reduction”, the “aversive effects in methadone-maintained subjects” value ([8]; 0.25- and 0.5-mg oral NTX doses) was “elicit aversive effects” and the “negative feeling states and antagonist activity (precipitated withdrawal)” value [8, 9] was “threshold dose with a trend toward negative feeling states”. The “subjects requiring a rescue dose of methadone” value [8, 9] was “Approximately 60%”, the “difference from NTX placebo treatment in mean PDmax, all queries except "Feeling sick"” value [8, 10] was “statistically significant differences” and the “precipitated withdrawal (Drug Effects Scales, antagonist total score, pupil diameter vs NTX placebo)” value [8, 10] was “strong evidence of precipitated withdrawal”. The “subjects requiring a rescue dose of methadone” value [8, 10] was about 90%, the “negative feeling states and precipitated withdrawal, dose dependence” value ([8]; NTX 0.25 and 0.5 mg with 30 mg HYIR) was “dose-dependent increases in negative feeling states and precipitated withdrawal” and the “effect on all secondary pharmacodynamic variables except the agonist total scores from the Subjective and Observer Symptom Rating Scales” value ([8]; NTX 0.25 and 0.5 mg with 30 mg HYIR, not always statistically significant) was “dose-related effect”. For the same molecule, the “effect on mean PDmax values for all 4 queries on the Subjective Drug Effects Scale” value ([8]; NTX 0.25 to 0.5 mg with 30 mg HYIR) was “dose-related effect” and the “appeal and abuse liability potential of HYIR” value ([8]; low dose NTX added to HYIR, subjects physically dependent on opioids) was “decreased the appeal”.
With `COc1ccc2c3c1O[C@H]1C(=O)CC[C@H]4[C@@H](C2)N(C)CC[C@]314.O=C(O)C(O)C(O)C(=O)O` [HYIR, Hydrocodone bitartrate] the safety concerns ([4]; 15-, 20-, or 25-mg doses of HYIR) was “no new safety concerns”, the “changes from predose in all pharmacodynamic variables” value ([8]; 30 mg HYIR plus NTX placebo) was “minimal changes from predose” and the “subjects requiring a rescue dose of methadone” value ([8]; 30 mg HYIR plus NTX placebo) was 4 of the 12. For the same molecule, the “subjective or physiologic opioid agonist activity” value ([8]; 30-mg oral dose of HYIR) was “did not produce significant subjective or physiologic opioid agonist activity” and the “trend of treatment means (PDmax and AUC) over the 3 periods, FIGS. 1-12” value ([8]; HYIR+NTX placebo treatment) was “increase in subjective and physiologic opioid agonist effects”.
